Patent US20260285853A1, “COMPOUNDS AND METHODS FOR MODULATING SPLICING” (REMIX THERAPEUTICS INC., priority 2023, published 2026)
pIC50: −log10 of the molar value.

Legend:
Test in all cases: Gene panel canonical junction qPCR assay, decrease in CJ mRNA, Table 3
Type in all cases: cell-based
SMN2 mRNA = system: SMN2 mRNA
Summary of the method: (§1)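 A673 (DMEM, 10% FBS, 15,000 cells/well) or K562 (IMDM, 10% FBS) cells treated 24 h at 37 °C with 11-point 3-fold dilutions, top 10 uM, DMSO ≤0.25%. Canonical exon-exon junction mRNA measured by RT-qPCR, normalized to GAPDH, GUSB or PPIA and DMSO (ΔΔCt); IC50 from 4-parameter logistic fit.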

HTT mRNA = system: HTT mRNA
Summary of the method: as §1

MYB mRNA = system: MYB mRNA
Summary of the method: as §1

[1] = decrease in canonical junction (CJ) mRNA, gene panel qPCR, Table 3
[2] = decrease in CJ mRNA levels, canonical junction qPCR, gene panel

| SMILES | pIC50 (SMN2 mRNA; [1]) | pIC50 (HTT mRNA; [1]) | pIC50 (MYB mRNA; [1]) | pIC50 (SMN2 mRNA; [2]) | pIC50 (HTT mRNA; [2]) | pIC50 (MYB mRNA; [2]) |
| --- | --- | --- | --- | --- | --- | --- |
| CNC1(C)CCN(c2ccc(C(=O)Nc3cn4cc(C)nc4c(OC)n3)c3nn(C)cc23)CC1 [Compound 197, N-(8-methoxy-2-methylimidazo[1,2-a]pyrazin-6-yl)-2-methyl-4-(4-methyl-4-(methylamino)piperidin-1-yl)-2H-indazole-7-carboxamide] | > 7.00 | > 7.00 | > 7.00 | – | – | – |
| Cc1cn2cc(NC(=O)c3c(O)cc(N4CC[C@@H](NC5CC5)C4)c4cn(C)nc34)cc(F)c2n1 [Compound 288, 4-[(3R)-3-(cyclopropylamino)-pyr-rolidin-1-yl]-N-(8-fluoro-2-methyl-imidazo[1,2-a]pyridin-6-yl)-6-hydroxy-2-methyl-indazole-7-carboxamide] | > 7.00 | < 5.00 | > 7.00 | – | – | – |
| Cc1cn2cc(NC(=O)c3ccc(N4C[C@@H](C)N[C@@H](C)C4)c4[nH]cnc34)cc(F)c2n1 [Compound 220, 7-[(3R,5S)-3,5-dimethylpiperazin-1-yl]-N-(8-fluoro-2-methyl-imidazo[1,2-a]pyridin-6-yl)-1H-1,3-benzodiazole-4-carboxamide] | 6.00 to 7.00 | 5.00 to 6.00 | 6.00 to 7.00 | – | – | – |
| Cc1nc2c(F)cc(NC(=O)c3ccc(N4CCC(NC5CC5)CC4)c4cn(C)nc34)cn2c1C [Compound 189, 4-[4-(cyclopropylamino)-1-piperidyl]-N-(8-fluoro-2,3-dimethyl-imidazo[1,2-a]pyridin-6-yl)-2-methyl-indazole-7-carboxamide] | < 5.00 | < 5.00 | < 5.00 | – | – | – |
| Cc1cn2cc(NC(=O)c3ccc(N4CCC(NC5CC56CC6)CC4)c4cn(C)nc34)cc(F)c2n1 (stereo not drawn) [Compound 203, N-(8-fluoro-2-methyl-imidazo[1,2-a]-pyridin-6-yl)-2-methyl-4-[4-(spiro[2.2]pentan-2-ylamino)-1-piperidyl] indazole-7-carboxamide] | > 7.00 | 6.00 to 7.00 | > 7.00 | – | – | – |
| Cc1cn2cc(NC(=O)c3ccc(N4CCC(NC5CC5)CC4)c4cc(C)nn34)cc(F)c2n1 [Compound 209, 4-[4-(cyclopropylamino)-1-piperidyl]-N-(8-fluoro-2-methyl-imidazo[1,2-a]pyridin-6-yl)-2-methyl-pyrazolo[1,5-a]pyridine-7-carboxamide] | > 7.00 | 6.00 to 7.00 | > 7.00 | – | – | – |
| Cc1cn2cc(NC(=O)c3ccc(N4CCC(NC5CC5)CC4)c4cn(C)nc34)nc2c(C)n1 [Compound 297, 4-[4-(cyclopropylamino)-1-piperidyl]-N-(6,8-dimethylimidazo[1,2-a]pyrazin-2-yl)-2-methyl-indazole-7-carboxamide] | > 7.00 | < 5.00 | 6.00 to 7.00 | – | – | – |
| COCC1(N[C@@H]2CCN(c3ccc(C(=O)Nc4cc(F)c5nc(C)cn5c4)c4nn(C)cc34)C2)CC1 [Compound 119, (R)—N-(8-fluoro-2-methylimidazo[1,2-a]pyridin-6-yl)-4-(3-((1-(methoxymethyl)cyclopropyl)amino)-pyrrolidin-1-yl)-2-methyl-2H-indazole-7-carboxamide] | 6.00 to 7.00 | 5.00 to 6.00 | 6.00 to 7.00 | – | – | – |
| COc1c(NC(=O)c2ncc(N3CCNCC3)c3cn[nH]c23)cn2cc(C)nc2c1F [Compound 606, N-(8-fluoro-7-methoxy-2-methyl-imidazo[1,2-a]pyridin-6-yl)-4-piperazin-1-yl-1H-pyrazolo[3,4-c]pyridine-7-carboxamide] | – | – | – | 6.00 to 7.00 | < 5.00 | < 5.00 |
| Cn1cc2cc(NC(=O)c3c(O)cc(N4CC[C@@H](NC5CC5)C4)c4cn(C)nc34)cc(F)c2n1 [Compound 291, 4-[(3R)-3-(cyclopropylamino)pyrrolidin-1-yl]-N-(7-fluoro-2-methyl-indazol-5-yl)-6-hydroxy-2-methyl-indazole-7-carboxamide] | > 7.00 | 5.00 to 6.00 | > 7.00 | – | – | – |
| Cc1cn2cc(NC(=O)c3ccc(N4CCC(NC5CC5)CC4)c4cc(C)oc34)cc(F)c2n1 [Compound 185, 4-[4-(cyclopropyl-amino)-1-piperidyl]-N-(8-fluoro-2-methyl-imidazo[1,2-a]pyridin-6-yl)-2-methyl-benzofuran-7-carboxamide] | > 7.00 | 5.00 to 6.00 | 6.00 to 7.00 | – | – | – |
| CCNC1CCN(c2ccc(C(=O)Nc3cc(F)c4nc(C)cn4c3)c3c2nnn3C)CC1 [Compound 198, 4-(4-(ethylamino)piperidin-1-yl)-N-(8-fluoro-2-methylimidazo[1,2-a]pyridin-6-yl)-1-methyl-1H-benzo[d][1,2,3]triazole-7-carboxamide 2,2,2-trifluoroacetate] | < 5.00 | < 5.00 | < 5.00 | – | – | – |
| CCNC1CCN(c2ccc(C(=O)Nc3cc(F)c4nc(COC)cn4c3)c3nn(C)cc23)CC1 [Compound 284, 4-[4-(ethylamino)-1-piperidyl]-N-[8-fluoro-2-(methoxymethyl)imidazo[1,2-a]pyridin-6-yl]-2-methyl-indazole-7-carboxamide] | 6.00 to 7.00 | 5.00 to 6.00 | 5.00 to 6.00 | – | – | – |
| COc1nc2c(C(=O)Nc3cc(F)c4nc(C)cn4c3)ccc(N3CCC(N)CC3)c2s1 [Compound 208, 7-(4-aminopiperidin-1-yl)-N-(8-fluoro-2-methylimidazo[1,2-a]pyridin-6-yl)-2-methoxybenzo[d]thiazole-4-carboxamide] | > 7.00 | 6.00 to 7.00 | > 7.00 | – | – | – |
| Cc1cn2cc(NC(=O)c3ccc(C4CNCCO4)c4[nH]cnc34)cc(F)c2n1 (stereo not drawn) [Compound 194, N-(8-fluoro-2-methyl-imidazo[1,2-a]pyridin-6-yl)-7-morpholin-2-yl-1H-benzimidazole-4-carboxamide] | > 7.00 | 5.00 to 6.00 | 6.00 to 7.00 | – | – | – |
| CCNC1CCN(c2ccc(C(=O)Nc3cc(F)c4nc(C)cn4c3)c3nnn(C)c23)CC1 [Compound 199, 7-[4-(ethylamino)-1-piperidyl]-N-(8-fluoro-2-methylimidazo[1,2-a]-pyridin-6-yl)-1-methylbenzotriazole-4-carboxamide] | > 7.00 | < 5.00 | 6.00 to 7.00 | – | – | – |
| Cc1cn2cc(NC(=O)c3ccc(N4CCNCC4=O)c4[nH]cnc34)cc(F)c2n1 [Compound 257, N-(8-fluoro-2-methyl-imidazo[1,2-a]-pyridin-6-yl)-7-(2-oxopiperazin-1-yl)-1H-benzimidazole-4-carboxamide] | 5.00 to 6.00 | < 5.00 | < 5.00 | – | – | – |
| Cc1cn2nc(NC(=O)c3ccc(N4CCC(NC5CC5)CC4)c4cn(C)nc34)cc(C)c2n1 [Compound 187, 4-[4-(cyclopropylamino)-1-piperidyl]-N-(2,8-dimethylimidazo-[1,2-b]pyridazin-6-yl)-2-methyl-indazole-7-carboxamide] | 6.00 to 7.00 | 6.00 to 7.00 | 6.00 to 7.00 | – | – | – |
| CNC1(C)CCN(c2cc(F)c(C(=O)Nc3cn4cc(C)nc4c(F)c3OC)c3nn(C)cc23)CC1 [Compound 180, 6-fluoro-N-(8-fluoro-7-methoxy-2-methyl-imidazo[1,2-a]pyridin-6-yl)-2-methyl-4-[4-methyl-4-(methylamino)-1-piperidyl]indazole-7-carboxamide] | > 7.00 | > 7.00 | > 7.00 | – | – | – |
| CCNC1CCN(c2ccc(C(=O)Nc3ccc4nc(C)cn4c3)c3nn(C)cc23)CC1 [Compound 176, 4-[4-(ethylamino)-1-piperidyl]-2-methyl-N-(2-methylimidazo[1,2-a]pyridin-6-yl)-indazole-7-carboxamide] | > 7.00 | 5.00 to 6.00 | 6.00 to 7.00 | – | – | – |
| Cc1cn2cc(NC(=O)c3ccc(N4CCC(NC5CC5)CC4)c4ccoc34)cc(F)c2n1 [Compound 191, 4-[4-(cyclopropylamino)-1-piperidyl]-N-(8-fluoro-2-methyl-imidazo[1,2-a]pyridin-6-yl) benzofuran-7-carboxamide] | > 7.00 | 5.00 to 6.00 | 6.00 to 7.00 | – | – | – |
| COCC1(N[C@H]2CCN(c3ccc(C(=O)Nc4cc(F)c5nc(C)cn5c4)c4nn(C)cc34)C2)CC1 [Compound 118, (S)—N-(8-fluoro-2-methylimidazo[1,2-a]pyridin-6-yl)-4-(3-((1-(methoxymethyl)cyclopropyl)amino)pyrrolidin-1-yl)-2-methyl-2H-indazole-7-carboxamide] | 6.00 to 7.00 | 5.00 to 6.00 | 5.00 to 6.00 | – | – | – |
| CCNC1CCN(c2ccc(C(=O)Nc3cc(F)c4nc(CO)cn4c3)c3nn(C)cc23)CC1 [Compound 193, 4-[4-(ethylamino)-1-piperidyl]-N-[8-fluoro-2-(hydroxymethyl)imidazo[1,2-a]pyridin-6-yl]-2-methyl-indazole-7-carboxamide] | > 7.00 | < 5.00 | 6.00 to 7.00 | – | – | – |
| CO[C@H]1C[C@@H](N[C@H]2CCN(c3ccc(C(=O)Nc4cc(F)c5nc(C)cn5c4)c4nn(C)cc34)C2)C1 [Compound 277, N-(8-fluoro-2-methylimidazo[1,2-a]pyridin-6-yl)-4-((S)-3-(((1s,3R)-3-methoxy-cyclobutyl)amino)pyrrolidin-1-yl)-2-methyl-2H-indazole-7-carboxamide] | > 7.00 | 5.00 to 6.00 | 6.00 to 7.00 | – | – | – |
| Cc1cn2cc(NC(=O)c3ccc(N4C[C@H](C)N[C@@H](C)C4)c4[nH]cnc34)cc(F)c2n1 [Compound 221, 7-[(3S,5S)-3,5-dimethylpiperazin-1-yl]-N-(8-fluoro-2-methylimidazo[1,2-a]pyridin-6-yl)-1H-1,3-benzodiazole-4-carboxamide] | > 7.00 | < 5.00 | 6.00 to 7.00 | – | – | – |
| Cc1cn2cc(NC(=O)c3ccc(C4CCC(NC5CC5)CC4)c4cn(C)nc34)cc(F)c2n1 (stereo not drawn) [Compound 192, 4-[4-(cyclopropylamino)cyclohexyl]-N-(8-fluoro-2-methyl-imidazo[1,2-a]pyridin-6-yl)-2-methyl-indazole-7-carboxamide] | > 7.00 | 6.00 to 7.00 | 6.00 to 7.00 | – | – | – |
